Results on two molecules are retold here after US6610681B1, “Neurotherapeutic clavulanate composition and method” (Revaax Pharmaceuticals, LLC, priority 1999, dated 2003).

For one data set, the system named is rats. Description: Morris water maze, spatial navigation. The format is in vivo, rat. From the text: The Morris water maze was developed to test spatial memory (Morris, 1984). The pool is divided into quadrants usually designated North, South, East and West. The water in the pool is made opaque with milk powder. Hidden just beneath the surface in one of the quadrants is a platform that serves as a escape route for rodents placed into the pool. An animal is placed some where in the pool from a variety of different start points and is timed for latency to find the platform, percent time spent in each quadrant, distance traveled and swimming speed. The animals have no visual or spatial cues in the pool and must rely on extra-maze cues, i.e., objects set up outside the pool that can be seen by the swimming animal. Through a series of trials a rat develops “place learning” or knowledge about the position of the platform based upon the extra-maze cues. The platform can be moved to a different quadrant each day combining spatial memory with working memory. This paradigm involves extinction of the prior memory and resolution of a new spatial problem.
The water maze consisted of a black plastic circular pool ca. 150 cm in diameter and 54 cm in height filled to a level of 35 cm with water made opaque with powdered milk. The pool was divided into four quadrants with a platform 10 cm in diameter submerged 2 cm below the surface in the northwest quadrant. The water was maintained at a temperature of 25° C. Around the pool were several visual cues. Above the pool was a video camera for tracking the movement of the experimental animal. The data collection was completely automated using the software developed by HVS Image (Hampton, UK). Before testing, rats were familiarized with the pool and platform placed in the northwest quadrant. Each day for 4 consecutive days, animals were placed into pool at random sites and given two min to find the platform. […] Following these familiarization trials, animals were tested for spatial navigation. The first day of testing began with the platform in the expected northwest quadrant. All behavior was videotaped for a two min observation period. After testing the animal were dried off and placed back into their home cage. On each subsequent day the platform was moved to a new quadrant and the rat started at different positions. The rat was always placed into the pool facing the sidewall. The start positions relative to the platform were different for each of the four trials; however, the platform was always in the same relative position in each quadrant. It was positioned 20 cm in from the side of the pool and in the left corner from the center facing out. The latency to find the hidden platform, path length, swim rate, and quadrant times between CLAV and vehicle treated animals were compared with a two-way, repeated measures ANOVA followed by Bonferroni post hoc tests.

A further data set deals with male golden hamsters. The data set can be described thus: resident/intruder paradigm of offensive aggression. Type of data set: in vivo, hamster. The text has this: Agonistic behavior can be classified as either offensive or defensive aggression (Blanchard and Blanchard, 1977; Adams, […]; Albert and Walsh, 1984). Offensive aggression is characterized by an aggressor initiating an attack on an opponent; while, defensive aggression lacks active approach. Both types of aggression have their own unique neurobehavioral systems. The stimuli that elicit offensive and defense attack are different, as are the sequences of behaviors that accompany each agonistic response. […] Offensive aggression is easily studied using male golden hamsters tested in a resident/intruder paradigm, an established model of offensive aggression (Ferris and Potegal 1988) in the context of defending the home burrow. Placing an unfamiliar male hamster into the home cage of another male hamster elicits a well-defined sequence of agonistic behaviors from the resident that includes offensive aggression.
Hamsters are nocturnal and as such all behavioral tests were performed during the first four hrs of the dark phase under dim red illumination. The resident was scored for offensive aggression, e.g., latency to bite the intruder, the total number of bites, total contact time with the intruder and flank marking over a 10 min test period (Ferris and Potegal, 1988). Flank marking is a form of olfactory communication in which a hamsters arches its back and rubs pheromone producing flank glands against objects in the environment (Johnston, 1986).
Five male golden hamsters (130-140 g) were given IP injections of CLAV (200 μg/kg) and saline vehicle in a volume of ca. 0.2 ml. […] Vehicle and CLAV treatments were counter balanced and randomized so all five animals received each treatment separated by at least 48 hrs. Animals were tested 90 min after treatment over a 10 min observation period. Latencies and contact time were analyzed with a two-way ANOVA. Non-parametric data, i.e., number of bites and flank marks were analyzed by Wilcoxon matched-pairs signed-ranks test.
The animals tested in this study were those used in Section IX. After the seed finding assay, beta-NAAG (n=6) and saline vehicle (n=6) treated animals remained in their home cage and were presented with a smaller, male intruder. The resident was scored for latency to bite, bites, contact time and flank marking over a 10 min observation period. Latency to bite and contact time between treatments were compared with Student t-tests. Non-parametric measures of bites and flank marks for beta-NAAG vs vehicle were compared with Mann-Whitney.

The test system of the next data set is neurogenic NAALADase. The data set can be described thus: animal tests of neuroactivity, effective dose. Type of data set: in vivo, hamsters and other test species.

SMILES strings stand for the structures. “Also recorded” adds a separate entry of the source.

Take `O=C(O)[C@H]1/C(=C/CO)O[C@@H]2CC(=O)N21` [CLAV, clavulanic acid]: in the data set on rats (1.0 μg/kg, Day 1, vs vehicle), the “path length to find the platform” value was “traveled a much shorter distance”. In the data set on rats (1.0 μg/kg, any quadrant on any day), the “percentage of time spent in each quadrant vs vehicle” value is “no significant difference between treatments”. Besides, the “latency to find the platform, main effect” value in the data set on rats (1.0 μg/kg, one hr before testing, 4 days) is on record as “no main effect for drug treatment”. Besides, the “latency to find the platform on Days 1 and 4” value in the data set on rats (1.0 μg/kg, trend towards significance) is “shorter latencies”. For the same molecule, in the data set on rats (spatial and cue navigation), the “learning and memory (summary)” value is “do not show any loss in learning and memory”. For the same molecule, the “antiaggressive properties (summary)” value in the data set on male golden hamsters (200 μg/kg) is “modest antiaggressive or serenic-like properties”. Moreover, in the data set on male golden hamsters (200 μg/kg IP, 90 min), the “contact time with the intruder” value is listed as “no significant main effect for drug treatment” and the flank marking behavior entry is listed as “unaffected; also recorded: no significant effect of drug treatment”. The “latency to bite the intruder” value with male golden hamsters (200 μg/kg IP, 90 min, trend toward significance) is “no significant main effect for drug treatment”. For the same molecule, the “median number of bites” value with male golden hamsters (200 μg/kg IP, 90 min, vehicle thirteen) is “six”. In addition, in the data set on male golden hamsters (IP at 1.0 μg/kg), the “aggressive behavior, pilot studies” value was “no effect on aggressive behavior”. In the data set with neurogenic NAALADase (i.p.), the “dose effective to inhibit neurogenic NAALADase” value is “less than 1 microgram per kilogram of body weight” and the “dose showing activity similar to moxalactam (aggression, spatial learning, anxiolytic)” value is “less than 1 microgram/kg”. The “dose exhibiting dose responsive neuroactivity” value in the data set with neurogenic NAALADase (levels as low as) was determined as 0.01 µg/kg.

For the molecule `CO[C@@]1(NC(=O)C(C(=O)O)c2ccc(O)cc2)C(=O)N2C(C(=O)O)=C(CSc3nnnn3C)CO[C@@H]21` (stereo partly drawn) [Moxalactam, 7-β-[2-carboxy-2-(4-hydroxyphenyl)acetamido]-7α-methoxy-3-[[(1-methyl-1H-tetrazol-5-yl)thio]methyl]-1-oxa-1-dethia-3-cephem-4-carboxylic acid], in the data set with rats (i.p. at 50 micrograms/kg, rats), the spatial learning result is reported as “enhances spatial learning in rats”. Further, the aggression entry in the data set on male golden hamsters (i.p. at 50 micrograms/kg, hamster) is given as “inhibits aggression in hamster”. In the data set with neurogenic NAALADase (administered parenterally), the “dose exhibiting significant dose responsive neuroactivity” value is on record as “about 50 μg/kg of body weight” and the threshold effective dose entry is “about 50 βg/kg of body weight”. Moreover, the “effective minimum neurogenic protease inhibiting concentration in the brain” value in the data set on neurogenic NAALADase (based on animal test data and known brain distribution) is on record as “about 30 nM”. In addition, in the data set with neurogenic NAALADase (parenterally, hamsters and other test species), the minimum effective dose result is “about 50 micrograms per kg of body weight”.
